From patent US7189519B2, “Bead-based detection of ligand-GPCR-G protein complexes” (STC.UNM, priority 1998, dated 2007)
Residues, ends and D or L forms follow the SMILES beside them. *: point of attachment. For = O=C*

System: FPR-GFP with Gαβγ on DCNi beads (LR^FG ternary complex)
Test: Standard LRG assembly assay with FPR-GFP (R^F) on G protein beads, flow cytometry
Format: biochemical, human
Settings: for EC50: standard assembly with 30 nM R^F, three experiments, read-out: EC50 for LRG formation
Method: Standard LRG Assembly Assay. […] Each mixture was mixed by pipetting to ensure a uniform starting suspension of the beads in 96 V-well plates (Costar), and then mixed at low speed on a vortex mixer at 7° for two hours. The 10 μl assays were individually brought to 200 μl with 0.1% dodecyl maltoside in buffer A in 12×75 mm tubes for flow cytometric measurement of fluorescence of the beads. LRG assembly was defined as the difference between fluorescence without GTPγS and that with GTPγS. All determinations were done in duplicate.

| EC50 [nM] | SMILES | calculated maximal assembly, of the LRG assembly of the longer peptides (near the limit of solubility of fML) |
| --- | --- | --- |
| 27 | CSCC[C@H](NC=O)C(=O)N[C@@H](CC(C)C)C(=O)N[C@@H](Cc1ccccc1)C(=O)N[C@@H](Cc1ccccc1)C(=O)O [fMLFF] (For-MLFF-OH; C-terminus assumed) | – |
| 5300 | CSCC[C@H](NC=O)C(=O)N[C@@H](CC(C)C)C(=O)O [fML] (For-Met-Leu-OH; C-terminus assumed) | 78+/−3% |
